The results in this text go back to patent US20240226017A1, “ERODIBLE TABLET” (Eli Lilly and Company, priority 2021, published 2024).

Data set [1] in a line: in vivo. Particulars: cynomolgus monkey, iv. Details: species or system cynomolgus monkeys. As for the experimental part: Plasma concentrations of Compound 2 are determined by a LC/MS method. Compound 2 and an internal standard (IS) are extracted from 100% monkey plasma (25 μL) using 50 mM ammonium bicarbonate. After centrifugation, the supernatant is transferred and 2B10 biotinylated antibody along with 5C9 biotinylated antibody (5 μL each) are added. The samples are then centrifuged, T1 Streptavidin beads are added (20 μL) for 30 minutes, and the analyte is eluted from the beads with 30% acetonitrile with 5% formic acid in water followed by mixing. A final sample (10 μL) containing 31% acetonitrile in 10% formic acid is loaded onto a Supelco Analytical Discovery BIO Wide Pore C5-3, 5 cm×0.1 mm for LC/MS analysis. The plasma PK of Compound 2 is evaluated in male cynomolgus monkeys following a single IV dose (50 nmol/kg). Blood samples are collected over 504 hours. Plasma is harvested from blood samples by centrifugation and stored frozen until analysis. Plasma concentrations of Compound 2 are detected through 504 hours post-dose. PK parameters for one animal are extrapolated using the concentration versus time data up to 72 hours post-dose.

The conditions of data set [2]: human, in vivo. As for the experimental part: A multiple-ascending dose study is conducted to study the safety, tolerability, and pharmacokinetics of erodible tablets containing Compound 2 administered as 3 consecutive, once-daily oral doses in healthy participants. Tablets are prepared having the composition set forth in Table 18 below using a direct compression process as described for Example 22 in Table 7 above. Average solid fraction of tablets was 0.90. The Compound 2 oral doses for this study are summarized in the following 4 “dose cohorts”: • Cohort 1, 4-mg dose: 1 tablet of 4 mg Compound 2+300 mg SNAC • Cohort 2, 8-mg dose:2 tablets of 4 mg Compound 2+300 mg SNAC • Cohort 3, 12-mg dose: 1 tablet of 12 mg Compound 2+300 mg SNAC • Cohort 4, 24-mg dose:2 tablets of 12 mg Compound 2+300 mg SNAC Sufficient participants are randomly assigned to study intervention to ensure approximately 10 evaluable participants (8 receiving Compound 2 and 2 receiving placebo) from each of 4 dose cohorts complete the study. In each cohort, eligible participants are randomly assigned to receive 3 once-daily doses of either Compound 2 or placebo. Data for the 4 cohorts are provided in Table 18 below, along with a comparison to IV data from a separate study having similar protocol design and conducted at the same clinical site.

A short description of data set [3]: in vivo. Conditions: male, cynomolgus monkey, iv. Details: species or system cynomolgus monkeys. As for the experimental part:
Plasma concentrations of Compound 1 are determined by a LC/MS method that measures intact Compound 1, peptide plus linked time extension. For each assay, Compound 1 and an IS, are extracted from 100% monkey plasma. This procedure involves initially thoroughly mixing the plasma sample (50 μl) with acetonitrile:water:formic acid (50:50:0.1; 25 μl) plus 2-propanol:methanol (50:50; 250 μl). Two distinct layers are formed upon centrifugation with Compound 1 and the IS contained in the supernatant layer. After moving 200-μL of the supernatant layer to the Sirocco Protein Precipitation plate, the plate is centrifuged (conditions). Next 600-μL of Water:Formic (100:2; 600 μl) are added to each well of the Sirocco plate, and the plate is vortexed, sealed, and centrifuged. After SPE plate conditioning, the sample from the Sirocco plate (700 μl) is transferred to a Waters, SPE plate, and centrifuged. The SPE plate, after washing, is eluted with acetonitrile:formic acid (100:2; 80 μl) into Invitrosol:water:water:formic acid 100:2 (35:15:50; 100 μl). The final sample (25 μl) is loaded onto a Waters, ACQUITY UPLC BEH C18 Column, 130 Å, (2.1 mm×100 mm, 1.7 μm). The column effluent is injected into a Sciex API 5500 mass spectrometer for detection and quantitation. Male cynomolgus monkeys are administered a single intravenous dose (0.05 mg/kg) or oral formulation (10 mg/tablet) of Compound 1. […]

On the set-up of data set [4]: species or system cynomolgus monkeys. Conditions: cynomolgus monkey, in vivo, po. How it is done:
High resolution liquid chromatography/mass spectrometry (HR-LC/MS) is used to measure the concentrations of Compound 2 in cynomolgus monkey plasma. Standards and controls are prepared in cynomolgus monkey plasma using Compound 2, and any dilutions required to bring samples into the quantitative range are also performed in control cynomolgus monkey plasma. To control assay variability, an IS is added to all the standards and samples.
For Studies with Examples 14, 15, 16, 17, 18, 19: Compound 2 and the IS are extracted from monkey plasma (50 μL) by protein precipitation using isopropyl alcohol and methanol (50:50 v/v). The samples are then centrifuged (4000 rpm for 10 minutes) and the supernatant is transferred to a Siricco Protein Precipitation Plate. After centrifugation (4000 rpm for 20 minutes), the samples are loaded on a Sep-Pak tC18 SPE microelution plate that is conditioned with 2% formic acid in water. […]
Pharmacokinetic (PK) parameters of Compound 2 are determined after a single 10-mg oral dose of Compound 2 in different formulations to male and female cynomolgus monkeys. […] Plasma concentrations of Compound 2 are detected through 504 hours post-dose.

Structures are written as SMILES. Like-named read-outs stand apart in the source and are kept apart here. Marks after values point to notes of the source that are not given here.

As a reminder, the AUC(0-inf) is the area under the concentration-time curve extrapolated to infinity. For orientation: clearance means the volume of plasma or blood freed of the substance per unit of time. Lower therefore signals a low capacity for elimination. What is called Cmax is the highest concentration seen after dosing. What is called half-life is the time needed for the level to fall by half in the phase considered. Read a high half-life as slow decline. With `CC[C@H](C)[C@H](NC(=O)[C@H](CC(C)C)NC(=O)[C@](C)(Cc1ccc(O)cc1)NC(=O)[C@@H](CCC(=O)O)NC(=O)[C@@H](NC(=O)[C@H](Cc1ccccc1)NC(=O)[C@H](CCC(=O)O)NC(=O)C(C)(C)NC(=O)[C@H](CCC(N)=O)NC(=O)[C@H](C)NC(=O)[C@H](CCCCNC(=O)COCCOCCNC(=O)COCCOCCNC(=O)CC[C@H](NC(=O)CCCCCCCCCCCCCCCCC(=O)O)C(=O)O)NC(=O)[C@H](CCCN)NC(=O)[C@H](CC(=O)O)NC(=O)[C@H](CC(C)C)NC(=O)[C@](C)(CC(C)C)NC(=O)[C@@H](NC(=O)[C@H](CO)NC(=O)[C@H](Cc1ccncc1)NC(=O)[C@H](CC(=O)O)NC(=O)[C@H](CO)NC(=O)[C@@H](NC(=O)[C@](C)(Cc1ccccc1F)NC(=O)[C@@H](NC(=O)CNC(=O)[C@H](CCC(=O)O)NC(=O)C(C)(C)NC(=O)[C@@H](N)Cc1ccc(O)cc1)[C@@H](C)O)[C@@H](C)O)[C@@H](C)CC)[C@@H](C)CC)C(=O)N[C@@H](CCC(=O)O)C(=O)NCC(=O)NCC(=O)N1CCC[C@H]1C(=O)N[C@@H](CO)C(=O)N[C@@H](CO)C(=O)NCC(=O)N[C@@H](C)C(=O)N1CCC[C@H]1C(=O)N1CCC[C@H]1C(=O)N1CCC[C@H]1C(=O)N[C@@H](CO)C(N)=O` [Compound 2, Y-Aib-EGT-αMeF(2F)-TSD-4Pal-SI-αMeL-LD-Orn-K((2-[2-(2-Amino-ethoxy)-ethoxy]-acetyl)2-(γ-Glu)-CO-(CH2)16-CO2H)AQ-Aib-EFI-(D-Glu)-αMeY-LIEGGPSSGAPPPS-NH2], in data set [1], the “Plasma concentrations detected through (post-dose)” value came out at 504 h. In data set [1] (male, 50 nmol/kg), this compound had an AUC0-inf of 84.232 µM·h, an area under the curve AUC(0-inf) of 84.2 µM·h, a CL of 14.2 mL/day/kg and a clearance of 14.2 mL/day/kg. In data set [1] (male, 50 nmol/kg, Cmax), this compound gave a Cmax of 1050 nM. Further, the half-life in data set [1] (male, 50 nmol/kg, T1/2) was 84 h. Also, in data set [2] (0.5 mg), the “Oral Bioavailability Based on AUC (0-168)” value is reported as 100% and the “Oral Bioavailability Based on AUC (0-∞)” value is 100%. In addition, in data set [2] (iv), the “Dose-Normalized AUC(0-168)” value was 22800^e ^ ng · h/mL · mg and the “Dose-Normalized AUC(0-∞)” value is listed as 49200^e ^ ng · h/mL · mg. Moreover, the clearance in data set [3] (CL) is 13 mL/day/kg. The same compound had a half-life in data set [3] (T1/2) of 96 h. Further, the “Plasma concentrations detected through (post-dose)” value in data set [4] stood at 504 h.
